In patent publication US10047096B2, “Substituted pyridobenzodiazepinone-derivatives and use thereof” (Bayer Pharma Aktiengesellschaft, priority 2014, dated 2018):
Where a name gives a salt, the structure may show the parent alone.

target: human PDGFRβ (Homo sapiens (Human), UniProt P09619); assay: PDGFRβ kinase assay (PDGFRβ-HTRF); type: biochemical; conditions: not given
Experimental: The PDGFRβ-inhibitory activity of the inventive compounds was determined in the PDGFRβ-HTRF assay described hereinafter.
The kinase used was a recombinant fusion protein composed of N-terminal GST and a C-terminal fragment of human PDGFRβ (amino acids R561-L1106), expressed in baculovirus-infected insect cells (Sf9) and purified by affinity chromatography (from ProQinase GmbH, Freiburg, Germany). The substrate used for the kinase reaction was biotinylated poly-Glu,Tyr (4:1) copolymer (from Cisbio Bioassays, Codolet, France).
For the assay, 50 nl of a 100-fold concentrated solution of the test substance in DMSO was pipetted into a black “low-volume 384 well” microtitre plate (from Greiner Bio-One, Frickenhausen, Germany), then 2 μl of a solution of PDGFRβ in assay buffer [50 mM HEPES/NaOH pH 7.5, 10 mM MgCl2, 2.5 mM dithiothreitol, 0.01% (v/v) Triton-X100 (from Sigma)] was added and the mixture was incubated for 15 min, in order to enable preliminary binding of the substance to the enzyme before the kinase reaction. […] The resulting mixture was incubated at 22° C. for 1 h to allow formation of a complex of the biotinylated phosphorylated substrate and the detection reagents.
Subsequently, the amount of the phosphorylated substrate was evaluated by measuring the resonance energy transfer from the PT66-Eu chelate to the streptavidin-XL665. […] The IC50 values were calculated by a 4-parameter fit.

Sequence of human PDGFRβ (P09619 561-1106): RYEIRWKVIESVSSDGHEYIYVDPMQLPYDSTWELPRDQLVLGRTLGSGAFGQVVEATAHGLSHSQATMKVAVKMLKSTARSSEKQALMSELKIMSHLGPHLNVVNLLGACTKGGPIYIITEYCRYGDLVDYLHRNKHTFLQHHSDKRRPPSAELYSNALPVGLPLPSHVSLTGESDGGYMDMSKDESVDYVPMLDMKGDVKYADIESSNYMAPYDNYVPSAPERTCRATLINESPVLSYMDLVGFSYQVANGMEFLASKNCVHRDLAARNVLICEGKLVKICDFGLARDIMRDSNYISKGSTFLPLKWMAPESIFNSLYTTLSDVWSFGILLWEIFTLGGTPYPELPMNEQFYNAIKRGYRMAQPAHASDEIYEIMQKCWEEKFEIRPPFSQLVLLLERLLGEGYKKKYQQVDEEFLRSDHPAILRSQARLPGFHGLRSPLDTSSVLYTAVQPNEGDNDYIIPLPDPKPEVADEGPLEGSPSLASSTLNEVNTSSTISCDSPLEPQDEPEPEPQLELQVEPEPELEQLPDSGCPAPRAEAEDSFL

Question: For `Cc1ccc(O)cc1Nc1ccnc2c1C(=O)Nc1cc(CN3CCOCC3)ccc1N2` [Example 41, 4-[(5-Hydroxy-2-methylphenyl)amino]-8-(morpholin-4-ylmethyl)-6,11-dihydro-5H-pyrido[2,3-b][1,5]benzodiazepin-5-one formic acid salt], which IC50 is on record?
Answer: 3.72 nM

same assay, conditions: 10 μM ATP; some mean values from multiple determinations

Question: Which IC50 does the source give for `COc1ccc(NCc2ccc3c(c2)NC(=O)c2c(Nc4cc(O)ccc4C)ccnc2N3)cc1F` [Example 107] here?
Answer: 18.4 nM

Question: With `N#Cc1ccc2c(c1)NC(=O)c1c(Nc3cccc(O)c3)ccnc1N2` [Example 35, 4-[(3-Hydroxyphenyl)amino]-5-oxo-6,11-dihydro-5H-pyrido[2,3-b][1,5]benzodiazepine-8-carbonitrile] as the compound, how does the IC50 read?
Answer: 12.6 nM

Question: Which IC50 does the source give for `Cc1ccc(O)cc1Nc1ccnc2c1C(=O)Nc1cc(CN[C@H](C)C3CCCCC3)ccc1N2` [Example 102] here?
Answer: 1.57 nM

Question: For `Cc1cc(F)c(Nc2ccnc3c2C(=O)Nc2cc(CN4CC[C@@H](N(C)C)C4)ccc2N3)cc1O` [Example 217, 8-{[(3R)-3-(Dimethylamino)pyrrolidin-1-yl]methyl}-4-[(2-fluoro-5-hydroxy-4-methylphenyl)amino]-6,11-dihydro-5H-pyrido[2,3-b][1,5]benzodiazepin-5-one], which IC50 is on record?
Answer: 3.39 nM

Question: `CCCc1ccc(Nc2ccnc3c2C(=O)Nc2cc(C#N)ccc2N3)cc1O` [Example 2, 4-[(3-Hydroxy-4-propylphenyl)amino]-5-oxo-6,11-dihydro-5H-pyrido[2,3-b][1,5]benzodiazepine-8-carbonitrile] was tested. Which IC50 did it give?
Answer: 862 nM

Question: With `Cc1ccc(O)cc1Nc1ccnc2c1C(=O)Nc1cc(CNCc3ccc(Cl)nc3)ccc1N2` [Example 95] as the compound, how does the IC50 read?
Answer: 1.95 nM

Question: `Cc1ccc(O)cc1Nc1ccnc2c1C(=O)Nc1cc(CN3CCCC3)ccc1N2` [Example 40, 4-[(5-Hydroxy-2-methylphenyl)amino]-8-(pyrrolidin-1-ylmethyl)-6,11-dihydro-5H-pyrido[2,3-b][1,5]benzodiazepin-5-one] was tested. Which IC50 did it give?
Answer: 1.8 nM

Question: How did the IC50 turn out when `Cc1ccc(O)cc1Nc1ccnc2c1C(=O)Nc1cc(C(=O)NCc3cccc(Cl)c3)ccc1N2` [Example 225, N-(3-Chlorobenzyl)-4-[(5-hydroxy-2-methylphenyl)amino]-5-oxo-6,11-dihydro-5H-pyrido[2,3-b][1,5]benzodiazepine-8-carboxamide] was run?
Answer: 14.1 nM

Question: How did the IC50 turn out when `Cc1cc(F)c(Nc2ccnc3c2C(=O)Nc2cc(C(N)=O)ccc2N3)cc1O` [Example 80, 4-[(2-Fluoro-5-hydroxy-4-methylphenyl)amino]-5-oxo-6,11-dihydro-5H-pyrido[2,3-b][1,5]benzodiazepine-8-carboxamide] was run?
Answer: 7.44 nM

Question: With `Cc1cc(F)c(Nc2ccnc3c2C(=O)Nc2cc(CN4CCCC(OCC(F)(F)F)C4)ccc2N3)cc1O` (racemic) [Example 89, rac-4-[(2-Fluoro-5-hydroxy-4-methylphenyl)amino]-8-{[3-(2,2,2-trifluoroethoxy)piperidin-1-yl]methyl}-6,11-dihydro-5H-pyrido[2,3-b][1,5]benzodiazepin-5-one] as the compound, how does the IC50 read?
Answer: 3.51 nM

Question: Which IC50 does the source give for `Cc1ccc(O)cc1Nc1ccnc2c1C(=O)Nc1cc(CNCC(N)=O)ccc1N2` [Example 16, N^2-({4-[(5-Hydroxy-2-methylphenyl)amino]-5-oxo-6,11-dihydro-5H-pyrido[2,3-b][1,5]benzodiazepin-8-yl}methyl)glycinamide] here?
Answer: 7.05 nM

Question: For `N#Cc1ccc2c(c1)NC(=O)c1c(Nc3cc(O)ccc3Cl)ccnc1N2` [Example 36, 4-[(2-Chloro-5-hydroxyphenyl)amino]-5-oxo-6,11-dihydro-5H-pyrido[2,3-b][1,5]benzodiazepine-8-carbonitrile], which IC50 is on record?
Answer: 20.1 nM

Question: Which IC50 does the source give for `COc1cc(O)cc(Nc2ccnc3c2C(=O)Nc2cc(C#N)ccc2N3)c1` [Example 9, 4-[(3-Hydroxy-5-methoxyphenyl)amino]-5-oxo-6,11-dihydro-5H-pyrido[2,3-b][1,5]benzodiazepine-8-carbonitrile] here?
Answer: 3.83 nM

Question: Which IC50 does the source give for `Cc1cc(F)c(Nc2ccnc3c2C(=O)Nc2cc(CN)ccc2N3)cc1O` [Example 87, 8-(Aminomethyl)-4-[(2-fluoro-5-hydroxy-4-methylphenyl)amino]-6,11-dihydro-5H-pyrido[2,3-b][1,5]benzodiazepin-5-one] here?
Answer: 1.41 nM
